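Interpolation was linear, between the two tested concentrations surrounding the appropriate level; five concentrations were tested over 48 hours in 96-well plates. GI50 is the concentration that inhibits growth by half. TGI: concentration producing complete growth inhibition.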
Columns and labels:
Assay in all cases: NCI-60 cell line screen, 48 h
786-0 renal = tested on: 786-0 renal
A498 renal = tested on: A498 renal
A549 NSCLC = tested on: A549 NSCLC
ACHN renal = tested on: ACHN renal
BT-549 breast = tested on: BT-549 breast
CAKI-1 renal = tested on: CAKI-1 renal
CCRF-CEM leukemia = tested on: CCRF-CEM leukemia
COLO 205 colon = tested on: COLO 205 colon
DU-145 prostate = tested on: DU-145 prostate
EKVX NSCLC = tested on: EKVX NSCLC
HCC-2998 colon = tested on: HCC-2998 colon
HCT-116 colon = tested on: HCT-116 colon
HCT-15 colon = tested on: HCT-15 colon
HL-60(TB) leukemia = tested on: HL-60(TB) leukemia
HOP-62 NSCLC = tested on: HOP-62 NSCLC
HOP-92 NSCLC = tested on: HOP-92 NSCLC
HS 578T breast = tested on: HS 578T breast
HT29 colon = tested on: HT29 colon
IGROV1 ovarian = tested on: IGROV1 ovarian
K-562 leukemia = tested on: K-562 leukemia
KM12 colon = tested on: KM12 colon
LOX IMVI melanoma = tested on: LOX IMVI melanoma
M14 melanoma = tested on: M14 melanoma
MALME-3M melanoma = tested on: MALME-3M melanoma
MCF7 breast = tested on: MCF7 breast
MDA-MB-231 breast = tested on: MDA-MB-231 breast
MDA-MB-435 = tested on: MDA-MB-435
MDA-MB-468 breast = tested on: MDA-MB-468 breast
MOLT-4 leukemia = tested on: MOLT-4 leukemia
NCI-H226 lung = tested on: NCI-H226 lung
NCI-H23 lung = tested on: NCI-H23 lung
NCI-H460 lung = tested on: NCI-H460 lung
NCI-H522 lung = tested on: NCI-H522 lung
OVCAR-3 ovarian = tested on: OVCAR-3 ovarian
OVCAR-4 ovarian = tested on: OVCAR-4 ovarian
OVCAR-5 ovarian = tested on: OVCAR-5 ovarian
OVCAR-8 ovarian = tested on: OVCAR-8 ovarian
PC-3 prostate = tested on: PC-3 prostate
RPMI-8226 leukemia = tested on: RPMI-8226 leukemia
RXF 393 renal = tested on: RXF 393 renal
SF-268 CNS = tested on: SF-268 CNS
SF-295 CNS = tested on: SF-295 CNS
SF-539 CNS = tested on: SF-539 CNS
SK-MEL-2 melanoma = tested on: SK-MEL-2 melanoma
SK-MEL-28 melanoma = tested on: SK-MEL-28 melanoma
SK-MEL-5 melanoma = tested on: SK-MEL-5 melanoma
SK-OV-3 ovarian = tested on: SK-OV-3 ovarian
SN12C renal = tested on: SN12C renal
SNB-19 CNS = tested on: SNB-19 CNS
SNB-75 CNS = tested on: SNB-75 CNS
SR leukemia = tested on: SR leukemia
SW-620 colon = tested on: SW-620 colon
T-47D breast = tested on: T-47D breast
TK-10 renal = tested on: TK-10 renal
U251 CNS = tested on: U251 CNS
UACC-257 melanoma = tested on: UACC-257 melanoma
UACC-62 melanoma = tested on: UACC-62 melanoma
UO-31 renal = tested on: UO-31 renal

SMILES: COc1ccc([C@H]2C(C(=O)c3ccc(Cl)cc3)C3(N[C@@H]2c2ccccc2)C(=O)Nc2ccc(Cl)cc23)cc1 (stereo partly specified)
- GI50 (786-0 renal): 5.11 µM
- TGI (786-0 renal): 20 µM
- GI50 (A498 renal): 8.68 µM
- TGI (A498 renal): 22.4 µM
- GI50 (A549 NSCLC): 2.4 µM
- TGI (A549 NSCLC): 13.7 µM
- GI50 (ACHN renal): 2.32 µM
- TGI (ACHN renal): 17.9 µM
- GI50 (BT-549 breast): 6.91 µM
- TGI (BT-549 breast): 14.6 µM
- GI50 (CAKI-1 renal): 1.53 µM
- TGI (CAKI-1 renal): 15.1 µM
- GI50 (CCRF-CEM leukemia): 3.32 µM
- TGI (CCRF-CEM leukemia): 25.1 µM
- GI50 (COLO 205 colon): 6.72 µM
- TGI (COLO 205 colon): 14.5 µM
- GI50 (DU-145 prostate): 7.91 µM
- TGI (DU-145 prostate): 27 µM
- GI50 (EKVX NSCLC): 6.43 µM
- TGI (EKVX NSCLC): 30.7 µM
- GI50 (HCC-2998 colon): 2.09 µM
- TGI (HCC-2998 colon): 8.15 µM
- GI50 (HCT-116 colon): 2.62 µM
- TGI (HCT-116 colon): 10.5 µM
- GI50 (HCT-15 colon): 3.86 µM
- TGI (HCT-15 colon): 12.7 µM
- GI50 (HL-60(TB) leukemia): 4.1 µM
- TGI (HL-60(TB) leukemia): 22.2 µM
- GI50 (HOP-62 NSCLC): 6.75 µM
- TGI (HOP-62 NSCLC): 14.5 µM
- GI50 (HOP-92 NSCLC): 2.38 µM
- TGI (HOP-92 NSCLC): 10.7 µM
- GI50 (HS 578T breast): 7.49 µM
- TGI (HS 578T breast): 24.9 µM
- GI50 (HT29 colon): 2.2 µM
- TGI (HT29 colon): 8.71 µM
- GI50 (IGROV1 ovarian): 3.54 µM
- TGI (IGROV1 ovarian): 13.7 µM
- GI50 (K-562 leukemia): 2.31 µM
- TGI (K-562 leukemia): 57.5 µM
- GI50 (KM12 colon): 2.44 µM
- TGI (KM12 colon): 12.8 µM
- GI50 (LOX IMVI melanoma): 2.75 µM
- TGI (LOX IMVI melanoma): 14 µM
- GI50 (M14 melanoma): 2.99 µM
- TGI (M14 melanoma): 12.7 µM
- GI50 (MALME-3M melanoma): 8.38 µM
- TGI (MALME-3M melanoma): 16.1 µM
- GI50 (MCF7 breast): 1.91 µM
- TGI (MCF7 breast): 13.1 µM
- GI50 (MDA-MB-231 breast): 4.87 µM
- TGI (MDA-MB-231 breast): 12.2 µM
- GI50 (MDA-MB-435): 4.02 µM
- TGI (MDA-MB-435): 14.5 µM
- GI50 (MDA-MB-468 breast): 7.07 µM
- TGI (MDA-MB-468 breast): 19.8 µM
- GI50 (MOLT-4 leukemia): 1.95 µM
- TGI (MOLT-4 leukemia): 56.6 µM
- GI50 (NCI-H226 lung): 6.64 µM
- TGI (NCI-H226 lung): 14.8 µM
- GI50 (NCI-H23 lung): 6.19 µM
- TGI (NCI-H23 lung): 16.2 µM
- GI50 (NCI-H460 lung): 2.5 µM
- TGI (NCI-H460 lung): 9.26 µM
- GI50 (NCI-H522 lung): 5.24 µM
- TGI (NCI-H522 lung): 14.3 µM
- GI50 (OVCAR-3 ovarian): 6.39 µM
- TGI (OVCAR-3 ovarian): 23.1 µM
- GI50 (OVCAR-4 ovarian): 5.77 µM
- TGI (OVCAR-4 ovarian): 27.1 µM
- GI50 (OVCAR-5 ovarian): 6.48 µM
- TGI (OVCAR-5 ovarian): 14.1 µM
- GI50 (OVCAR-8 ovarian): 4.98 µM
- TGI (OVCAR-8 ovarian): 14 µM
- GI50 (PC-3 prostate): 1.99 µM
- TGI (PC-3 prostate): 10.6 µM
- GI50 (RPMI-8226 leukemia): 3.62 µM
- TGI (RPMI-8226 leukemia): 48 µM
- GI50 (RXF 393 renal): 2.93 µM
- TGI (RXF 393 renal): 12 µM
- GI50 (SF-268 CNS): 3.21 µM
- TGI (SF-268 CNS): 38 µM
- GI50 (SF-295 CNS): 3.08 µM
- TGI (SF-295 CNS): 13.1 µM
- GI50 (SF-539 CNS): 7.28 µM
- TGI (SF-539 CNS): 16.6 µM
- GI50 (SK-MEL-2 melanoma): 6.16 µM
- TGI (SK-MEL-2 melanoma): 13.4 µM
- GI50 (SK-MEL-28 melanoma): 6.47 µM
- TGI (SK-MEL-28 melanoma): 13.6 µM
- GI50 (SK-MEL-5 melanoma): 9.38 µM
- TGI (SK-MEL-5 melanoma): 17.9 µM
- GI50 (SK-OV-3 ovarian): 11.5 µM
- TGI (SK-OV-3 ovarian): 38.4 µM
- GI50 (SN12C renal): 3 µM
- TGI (SN12C renal): 10.4 µM
- GI50 (SNB-19 CNS): 6.5 µM
- TGI (SNB-19 CNS): 46.5 µM
- GI50 (SNB-75 CNS): 2.82 µM
- TGI (SNB-75 CNS): 27.2 µM
- GI50 (SR leukemia): 2.08 µM
- TGI (SR leukemia): 20.5 µM
- GI50 (SW-620 colon): 5.33 µM
- TGI (SW-620 colon): 21.5 µM
- GI50 (T-47D breast): 2.61 µM
- TGI (T-47D breast): 13.4 µM
- GI50 (TK-10 renal): 7.42 µM
- TGI (TK-10 renal): 19.8 µM
- GI50 (U251 CNS): 5.5 µM
- TGI (U251 CNS): 13 µM
- GI50 (UACC-257 melanoma): 6.69 µM
- TGI (UACC-257 melanoma): 18.6 µM
- GI50 (UACC-62 melanoma): 2.13 µM
- TGI (UACC-62 melanoma): 9.36 µM
- GI50 (UO-31 renal): 1.74 µM
- TGI (UO-31 renal): 10.8 µM
